Data on two molecules can be found in paper PMC7036548 (Cellular and Molecular Gastroenterology and Hepatology, 2019).

In assay [1] the target is T1, DOR-eGFP (Mus musculus, UniProt P32300). As to the kind of experiment: DOR-eGFP internalization, confocal imaging. Conditions: agonist; control 73.8 ± 2.6%; myenteric neurons of colon.
The target in assay [2] is T1, DOR-eGFP. Description: DOR-eGFP internalization, confocal imaging. Conditions: agonist, 1 μmol/L; blocked by naltrindole.
In another assay the target is human MOR (CHO cells) (Homo sapiens, UniProt P35372). Description: […]GTPγS binding, CHO membranes. The note with it: 10 μmol/L GDP, pH 7.4, RT; no G protein activation. The assay is classed as biochemical. (Binding of GTPγS marks nucleotide exchange on a G protein.)

SMILES strings stand for the structures.

T1 sequence (P32300 whole entry): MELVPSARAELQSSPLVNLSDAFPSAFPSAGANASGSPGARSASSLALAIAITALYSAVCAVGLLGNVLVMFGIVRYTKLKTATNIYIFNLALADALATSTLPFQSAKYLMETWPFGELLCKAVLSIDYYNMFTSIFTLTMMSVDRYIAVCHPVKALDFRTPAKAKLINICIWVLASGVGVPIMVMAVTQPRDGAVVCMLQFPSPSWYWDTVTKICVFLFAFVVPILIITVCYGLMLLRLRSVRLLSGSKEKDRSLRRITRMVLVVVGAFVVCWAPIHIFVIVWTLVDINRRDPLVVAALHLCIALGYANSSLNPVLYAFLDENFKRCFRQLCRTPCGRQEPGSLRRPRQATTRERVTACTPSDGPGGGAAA
human MOR (CHO cells), sequence (P35372 whole entry): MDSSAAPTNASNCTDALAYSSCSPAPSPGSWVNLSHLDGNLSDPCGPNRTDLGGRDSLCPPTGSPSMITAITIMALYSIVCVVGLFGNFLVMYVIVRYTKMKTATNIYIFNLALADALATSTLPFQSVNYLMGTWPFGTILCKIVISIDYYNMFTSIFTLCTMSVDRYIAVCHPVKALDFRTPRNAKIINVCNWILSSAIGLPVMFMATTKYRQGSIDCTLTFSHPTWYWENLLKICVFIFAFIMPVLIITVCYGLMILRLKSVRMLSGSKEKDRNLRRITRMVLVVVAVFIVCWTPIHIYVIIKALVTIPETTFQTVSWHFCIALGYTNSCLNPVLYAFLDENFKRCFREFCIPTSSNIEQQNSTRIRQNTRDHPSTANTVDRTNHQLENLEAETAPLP

In the case of `C=CCN1C[C@H](C)N([C@H](c2ccc(C(=O)N(CC)CC)cc2)c2cccc(OC)c2)C[C@H]1C` [SNC80], the “% cell surface DOR-eGFP at 1 μmol/L” value at DOR-eGFP [1] is reported as 41.9 ± 2.9%.

Consider `CCOC(=O)C1(CCc2ccccc2)CCN(Cc2ccc(NC(C)=O)cc2)CC1` [CYM51010], for which the “DOR-eGFP internalization, confocal imaging” value at DOR-eGFP [2] is “CYM51010 promoted robust internalization of DOR-eGFP in both myenteric and submucosal neurons”. In addition, on human MOR (CHO cells), the “[35S]GTPγS binding, CHO membranes” value is “increase in G protein activation only in DOR expressing CHO cells”.
